Where two headings read alike, the source gives them in different places.

The test system of data set [1] is ouabain-induced arrhythmias. Nature of the data set: Ouabain-induced arrhythmias in anesthetized guinea-pigs. As to conditions: for A-A EFFECT IN NUMBER OF ANIMALS: animals with antiarrhythmic effect / animals tested; for LOWEST FREQUENCY: frequency of ventricular premature beats after test solution; for ASYSTOLE: time of asystole under continued ouabain; for V-FIB: time of ventricular fibrillation under continued ouabain. It is filed as in vivo. On the procedure:
Guinea-pigs of either.sex (300-400 g) were anesthetized with urethane 1,4 g/kg i.p. and tracheotomized. ECG, lead II was picked up with needle electrodes and was registered continuously throughout the experiment. Two i.v. catheters were inserted: one for the administration of ouabain, the other for the test solution.
The experimental design for the study of antiarrhythmic activities is schematically shown in the head of Table 2. The arrhythmia was induced by automatic infusion of ouabain, 18 µg/kg/60" every two minutes for twelve minutes and thereafter 9 µg/kg/30" every two minutes throughout the whole experiment and the infusion was not stopped until asystole occurred. As soon as the frequency of ventricular premature beats (VPB) had passed 50 per cent, the test solution was given i.v. (0,2 ml/min) during 2 min. (see head of Table 2).

In data set [2] the test system is chloroform-induced ventricular arrhythmias. The experiment in a line: Chloroform-induced ventricular arrhythmias (fibrillation) in mice, intraperitoneal dose. Particulars: for Number of Animals Protected: protected against CHCl3-induced ventricular fibrillation. The text has this: Mice were given an intraperitoneal dose of the test compound. Twenty minutes after dose, they were suffocated in chloroform vapor.- When the animals stopped breathing, the chest was opened to inspect for fibrillation. If the heart was not fibrillating, it was prodded.
Signs of CNS toxicity were noted during the 20-minute interval between dosing and challenge.
"Protected" means number of animals protected against CHC13- induced ventricular fibrillation.

Data set [3] in a line: Conscious dogs with ligation of a coronary artery according to Harris: ectopics and convulsions. The data set is classed as in vivo. As to conditions: in vivo. The text has this: (§1) Male beagle dogs, 7-13 kg, undergo two days prior to the test a surgical ligation of a coronary artery. On the day of the test the conscious dog is secured in a canvas sling in a standing position and given increasing doses of the test compounds by intravenous administration. ECG, blood pressure etc are monitored and attention is paid to all CNS-effects. The dogs have almost 100 percent of ectopics prior to administration of the compound to be tested. Effects of the test drug on the frequency of ectopics are calculated from ECG. The accumulative end doses giving 50% and 90% reduction of ectopics as well as the ED50 values which give convulsions (side-effect) are measured and given below in Table 3. The value for convulsions is a mean value for 3-5 dogs.
(§2) x) The value given is the final value in a series of doses 0.5 + 1 + 2 + 4 + 8 mg/kg i.v. giving 50% reduction of ectopics. 30 min interval between doses.
(§3) Table 3: Antiarrythmic effect and CNS-effects of four β-receptor blockers, a membrane stabilizer, and ten new compounds with combined β-blocking and membrane stabilizing effect.

In data set [4] the test system is ectopics. The data set is described as above. The data set is classed as in vivo. As to conditions: Canis lupus familiaris, iv.; for ED50: accumulative end dose giving 50% reduction of ectopics, read-out: Conscious dog Harris ligation Ectopics -50%; for ED90: accumulative end dose giving 90% reduction of ectopics, read-out: Conscious dog Harris ligation Ectopics -90%.
Excerpt: as §1, §2, §3

Data set [5] can be described thus: Alternative chloroform test on mice: ventricular tachycardia inhibition and ataxia. It is filed as in vivo. Particulars: mouse, in vivo. As to the method:
(§4) In an alternative chloroform test on mice the ventricular tachycardia inhibition by the test compounds are observed. Thereby the test solution is given subcutaneous and the animal is observed for CNS-effects for 20 min. The mouse is put into a chamber with chloroform until it stops breathing (approx 30 sec.). The animal is then secured on a cork-board and ECG is monitored. If the ventricular rythm is less than 520 beats per min., the animal was protected against ventricular tachycardia. Groups of 10 animals were tested for each dose-level'and the ED50-values have been calculated therefrom. During the test the side-effect ataxia (incordination of movements) is observed.
(§5) In Table 5, as shown, the new compounds tested exerted antiarrhythmic effects also in this te-st.

Data set [6] relates to chloroform induced ventricular tachy-cardia. Described as above. It is filed as in vivo. As to conditions: Mus musculus; sc.; mice, chloroform; groups of 10 animals per dose-level. As to the method:
as §4, §5

Where [7] appears, read: dose 100 mg/kg intraperitoneal, 10 treated.

Take `COCCc1ccc(OCC(O)CNCCc2ccc(O)cc2)cc1` (stereo not shown) [Ex. 2]: in data set [1] (dose 0.1 mg/kg i.v.), the “A-A EFFECT IN NUMBER OF ANIMALS” value is 7/7, the “LOWEST FREQUENCY” value was 25±7%, the ASYSTOLE amounted to 27 ± 3 min and the V-FIB turned out to be 20 ± 2 min. Besides, in data set [1] (dose 0.3 mg/kg i.v.), the “A-A EFFECT IN NUMBER OF ANIMALS” value was 6/6, the “LOWEST FREQUENCY” value worked out at 5±2%, the ASYSTOLE was 35 ± 3 min and the V-FIB was determined as 29 ± 2 min. In data set [2] (setting [7]), the “Number of Animals Dead” value is on record as 0 and the “Number of Animals Protected” value worked out at 8. Also, in data set [2] (mouse, in vivo, ip, 100 mg/kg), the “Number of Animals Convulsive” value is recorded as 0 and the “Number of Animals LRR” value is on record as 0. The same compound had a TD50 in data set [3] (dog, iv) of 8 mg/kg. Also, in data set [4], the ED50 was 4 mg/kg and the ED90 stood at 8 mg/kg. This compound showed a TD50 at 20 min in data set [5] (sc) of more than 13 mg/kg. The same compound returned an ED50 in data set [6] of 3 mg/kg.

Take `COCCc1ccc(OCC(O)CNC(C)C)cc1` (stereo not shown) [Metoprolol]: in data set [1] (dose 0.03 mg/kg i.v.), the “A-A EFFECT IN NUMBER OF ANIMALS” value is on record as 6/6, the “LOWEST FREQUENCY” value is on record as 34±5%, the ASYSTOLE amounted to 35 ± 4 min and the V-FIB was found to be 25 ± 3 min. In data set [1] (dose 0.1 mg/kg i.v.), the “A-A EFFECT IN NUMBER OF ANIMALS” value is on record as 6/6, the “LOWEST FREQUENCY” value came to 16±7%, the ASYSTOLE was found to be 38 ± 5 min and the V-FIB turned out to be 32 ± 5 min. Moreover, in data set [1] (dose 0.3 mg/kg i.v.), the “A-A EFFECT IN NUMBER OF ANIMALS” value is listed as 6/6, the “LOWEST FREQUENCY” value was found to be 1±1%, the ASYSTOLE was determined as 48 ± 6 min and the V-FIB was determined as 37 ± 3 min. The compound further yielded a TD50 in data set [3] (dog, iv) of more than 8 mg/kg. Further, in data set [4], the ED50 was 4 mg/kg and the ED90 was determined as 8 mg/kg. For the same compound, the TD50 at 20 min in data set [5] (sc) was more than 50 mg/kg. For the same compound, the ED50 in data set [6] was found to be 2.6 mg/kg.

On to `CC(C)NCC(O)COc1cccc2ccccc12` (stereo not shown) [Propranolol], for which, in data set [1] (dose 0.03 mg/kg i.v.), the “A-A EFFECT IN NUMBER OF ANIMALS” value is 6/7, the “LOWEST FREQUENCY” value was found to be 29±5%, the ASYSTOLE was determined as 29 ± 2 min and the V-FIB was found to be 21 ± 3 min. Further, in data set [1] (dose 0.1 mg/kg i.v.), the “A-A EFFECT IN NUMBER OF ANIMALS” value is 6/7, the “LOWEST FREQUENCY” value stood at 9±5%, the ASYSTOLE came to 35 ± 4 min and the V-FIB was found to be 30 ± 5 min. In data set [1] (dose 0.3 mg/kg i.v.), the “A-A EFFECT IN NUMBER OF ANIMALS” value is listed as 6/6, the “LOWEST FREQUENCY” value is reported as 4±2%, the ASYSTOLE is 32 ± 5 min and the V-FIB amounted to 27 ± 6 min. In data set [2] (setting [7]), the “Number of Animals Dead” value was 0 and the “Number of Animals Protected” value was 10. The “Number of Animals Convulsive” value in data set [2] (dose 100 mg/kg intraperitoneal, 10 treated, convulsions within 20 minutes after dosing) was determined as 10. In data set [2] (dose 100 mg/kg intraperitoneal, 10 treated, loss of righting reflex), the “Number of Animals LRR” value is reported as 1. Moreover, the TD50 in data set [3] (iv., conscious dog, mean value for 3-5 dogs, read-out: ED50 Convulsive) was 8 mg/kg. Also, in data set [4], the ED50 is 1 mg/kg and the ED90 turned out to be 3 mg/kg. In addition, the TD50 at 20 min in data set [5] (sc., mice, observed for 20 min, read-out: Ataxia ED50) is more than 1 mg/kg. Also, the ED50 in data set [6] is 0.6 mg/kg.

(Values after patent EP0007294A2, “Membrane stabilizing compounds having beta-receptor blocking activity, their preparation, method for treatment of arrhythmic conditions, and pharmaceutical preparations containing same” (priority 1978, dated 1980).)
